Results taken from ChEMBL document CHEMBL4422610, “HDAC as onco target: Reviewing the synthetic approaches with SAR study of their inhibitors” (Eur J Med Chem, 2018).
pIC50: −log10 of the molar value. Each block holds one compound with its values, some of them ahead of it.

Columns and labels:
Histone deacetylase 1 [1] = target: T1, Histone deacetylase 1 (Homo sapiens, UniProt Q13547); assay: Inhibition of recombinant human FLAG/His-tagged HDAC1 expressed in baculovirus expression system using Boc-l-Lys(Ac)-AMC as substrate preincubated up to 3 hrs and measured after 35 mins by fluorescence assay
T1 sequence (Q13547 whole entry): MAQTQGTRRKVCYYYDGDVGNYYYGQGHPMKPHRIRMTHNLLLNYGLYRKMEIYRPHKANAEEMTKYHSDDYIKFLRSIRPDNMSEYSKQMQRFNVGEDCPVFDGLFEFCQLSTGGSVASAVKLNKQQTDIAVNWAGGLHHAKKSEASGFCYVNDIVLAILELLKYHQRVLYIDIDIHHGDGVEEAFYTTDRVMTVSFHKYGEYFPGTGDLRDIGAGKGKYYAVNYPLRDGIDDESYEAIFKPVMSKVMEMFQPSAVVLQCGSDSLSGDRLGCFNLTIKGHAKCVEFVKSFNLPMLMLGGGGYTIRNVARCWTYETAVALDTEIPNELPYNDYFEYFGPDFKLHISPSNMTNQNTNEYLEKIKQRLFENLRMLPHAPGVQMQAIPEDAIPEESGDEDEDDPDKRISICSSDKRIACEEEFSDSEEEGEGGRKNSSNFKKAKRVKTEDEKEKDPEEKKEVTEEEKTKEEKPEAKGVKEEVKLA

Histone deacetylase 2 = Histone deacetylase 2 (Homo sapiens, UniProt Q92769)
Chain of Histone deacetylase 2 (Q92769 whole entry, the tested form may be a part): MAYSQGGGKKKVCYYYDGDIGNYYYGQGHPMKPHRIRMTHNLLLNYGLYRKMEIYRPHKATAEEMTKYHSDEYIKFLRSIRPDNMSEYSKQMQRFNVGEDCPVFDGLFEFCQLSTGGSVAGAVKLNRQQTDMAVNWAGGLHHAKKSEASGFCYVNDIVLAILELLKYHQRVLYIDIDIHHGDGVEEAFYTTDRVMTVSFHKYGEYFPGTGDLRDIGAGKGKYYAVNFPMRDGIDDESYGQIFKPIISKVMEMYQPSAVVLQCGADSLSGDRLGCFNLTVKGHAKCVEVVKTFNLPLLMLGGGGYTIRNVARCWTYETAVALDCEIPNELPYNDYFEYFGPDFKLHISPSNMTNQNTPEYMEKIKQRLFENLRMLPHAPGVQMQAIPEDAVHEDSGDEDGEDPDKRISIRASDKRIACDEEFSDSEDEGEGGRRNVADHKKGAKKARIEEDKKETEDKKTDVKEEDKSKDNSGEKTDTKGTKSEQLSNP

[2] = target: Histone deacetylase 3/Nuclear receptor corepressor 2 (HDAC3/NCoR2) (Homo sapiens, UniProt O15379); assay: Inhibition of human recombinant full length C-terminal His-tagged HDAC3 (1 to 428 residues)/N-terminal GST-tagged NCOR2 (395 to 489 residues) expressed in insect cells using Boc-l-Lys(Ac)-AMC as substrate preincubated up to 3 hrs and measured after 35 mins by fluorescence assay
Chain of Histone deacetylase 3/Nuclear receptor corepressor 2 (HDAC3/NCoR2) (O15379 whole entry, the tested form may be a part): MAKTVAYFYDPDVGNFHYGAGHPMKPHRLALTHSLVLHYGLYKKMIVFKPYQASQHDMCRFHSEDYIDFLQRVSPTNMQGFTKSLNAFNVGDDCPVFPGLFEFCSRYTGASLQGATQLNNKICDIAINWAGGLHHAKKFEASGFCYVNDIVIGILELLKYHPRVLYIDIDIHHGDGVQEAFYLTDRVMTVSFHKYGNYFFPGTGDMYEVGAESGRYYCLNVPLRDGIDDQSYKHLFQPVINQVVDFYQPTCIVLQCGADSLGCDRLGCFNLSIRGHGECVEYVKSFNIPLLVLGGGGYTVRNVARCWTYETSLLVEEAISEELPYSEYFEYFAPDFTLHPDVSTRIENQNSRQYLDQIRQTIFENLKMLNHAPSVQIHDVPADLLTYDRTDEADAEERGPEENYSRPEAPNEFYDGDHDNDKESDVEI
Chain of Histone deacetylase 3/Nuclear receptor corepressor 2 (HDAC3/NCoR2) (Q9Y618 whole entry, further chain, the tested form may be a part): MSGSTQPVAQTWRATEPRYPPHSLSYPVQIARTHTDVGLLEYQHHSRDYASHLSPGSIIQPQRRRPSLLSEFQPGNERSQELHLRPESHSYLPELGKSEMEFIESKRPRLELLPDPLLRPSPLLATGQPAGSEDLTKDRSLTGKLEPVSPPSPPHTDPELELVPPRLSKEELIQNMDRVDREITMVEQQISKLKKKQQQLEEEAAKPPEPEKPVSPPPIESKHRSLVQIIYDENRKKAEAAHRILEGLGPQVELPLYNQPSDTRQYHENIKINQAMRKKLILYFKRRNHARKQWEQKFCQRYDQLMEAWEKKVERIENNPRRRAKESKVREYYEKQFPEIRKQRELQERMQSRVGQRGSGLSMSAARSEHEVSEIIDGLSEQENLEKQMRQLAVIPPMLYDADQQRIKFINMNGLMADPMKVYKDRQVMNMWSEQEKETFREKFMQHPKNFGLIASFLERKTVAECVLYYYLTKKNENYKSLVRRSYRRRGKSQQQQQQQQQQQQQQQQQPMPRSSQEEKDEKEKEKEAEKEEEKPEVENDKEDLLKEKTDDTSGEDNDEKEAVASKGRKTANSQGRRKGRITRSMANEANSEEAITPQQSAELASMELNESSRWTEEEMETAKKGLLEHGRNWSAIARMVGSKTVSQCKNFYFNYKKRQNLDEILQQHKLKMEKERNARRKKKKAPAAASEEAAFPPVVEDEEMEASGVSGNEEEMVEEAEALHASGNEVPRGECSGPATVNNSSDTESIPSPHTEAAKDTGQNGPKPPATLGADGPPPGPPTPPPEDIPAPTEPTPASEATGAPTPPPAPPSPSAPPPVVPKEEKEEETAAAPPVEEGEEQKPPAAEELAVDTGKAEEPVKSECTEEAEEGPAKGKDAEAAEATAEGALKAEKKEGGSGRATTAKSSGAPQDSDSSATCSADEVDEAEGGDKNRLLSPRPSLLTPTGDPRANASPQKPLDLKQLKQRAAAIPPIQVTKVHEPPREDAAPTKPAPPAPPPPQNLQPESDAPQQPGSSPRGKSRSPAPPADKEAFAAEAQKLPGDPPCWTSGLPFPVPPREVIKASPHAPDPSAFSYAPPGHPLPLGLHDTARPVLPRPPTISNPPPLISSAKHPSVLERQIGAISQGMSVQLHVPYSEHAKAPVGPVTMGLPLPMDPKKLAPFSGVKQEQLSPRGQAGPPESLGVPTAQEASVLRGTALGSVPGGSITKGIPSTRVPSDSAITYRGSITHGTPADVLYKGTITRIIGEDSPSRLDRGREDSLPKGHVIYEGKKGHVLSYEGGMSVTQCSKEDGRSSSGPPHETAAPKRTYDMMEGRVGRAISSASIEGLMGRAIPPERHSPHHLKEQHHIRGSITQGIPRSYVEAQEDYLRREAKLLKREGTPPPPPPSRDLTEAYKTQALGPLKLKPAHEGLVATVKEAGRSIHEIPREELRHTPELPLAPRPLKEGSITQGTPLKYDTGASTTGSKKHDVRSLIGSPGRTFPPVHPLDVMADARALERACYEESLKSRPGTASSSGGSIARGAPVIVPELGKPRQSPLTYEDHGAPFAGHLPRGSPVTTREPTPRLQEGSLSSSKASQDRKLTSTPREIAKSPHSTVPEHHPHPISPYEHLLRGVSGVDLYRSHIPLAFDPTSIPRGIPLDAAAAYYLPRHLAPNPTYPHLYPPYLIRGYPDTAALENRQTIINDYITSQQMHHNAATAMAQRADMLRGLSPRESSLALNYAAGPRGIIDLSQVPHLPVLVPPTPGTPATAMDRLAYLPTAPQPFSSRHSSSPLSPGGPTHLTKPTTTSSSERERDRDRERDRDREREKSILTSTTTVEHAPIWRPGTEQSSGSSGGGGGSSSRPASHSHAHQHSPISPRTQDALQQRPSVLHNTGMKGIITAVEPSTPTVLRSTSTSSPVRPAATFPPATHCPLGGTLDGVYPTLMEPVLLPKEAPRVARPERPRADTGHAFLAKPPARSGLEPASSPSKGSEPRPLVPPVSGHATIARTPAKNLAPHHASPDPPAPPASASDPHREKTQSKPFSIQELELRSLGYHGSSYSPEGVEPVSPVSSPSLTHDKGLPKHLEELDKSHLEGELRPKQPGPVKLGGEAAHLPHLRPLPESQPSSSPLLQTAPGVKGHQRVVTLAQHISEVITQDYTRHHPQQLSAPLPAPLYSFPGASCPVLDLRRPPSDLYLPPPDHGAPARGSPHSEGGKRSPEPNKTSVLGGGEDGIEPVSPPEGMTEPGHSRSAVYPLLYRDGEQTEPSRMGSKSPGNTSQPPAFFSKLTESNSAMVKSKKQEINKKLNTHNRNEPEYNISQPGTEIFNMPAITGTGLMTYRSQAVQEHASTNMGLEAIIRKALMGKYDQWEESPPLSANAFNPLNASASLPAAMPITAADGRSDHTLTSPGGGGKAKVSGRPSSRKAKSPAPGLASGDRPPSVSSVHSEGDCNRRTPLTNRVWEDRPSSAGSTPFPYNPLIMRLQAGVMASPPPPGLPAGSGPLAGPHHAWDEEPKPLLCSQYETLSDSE

Histone deacetylase 8 [3] = target: T2, Histone deacetylase 8 (Homo sapiens, UniProt Q9BY41); assay: Inhibition of HDAC8 (unknown origin) expressed in Escherichia coli using BML-KI-178 as substrate preincubated up to 3 hrs and measured after 35 mins by fluorescence assay
T2 sequence (Q9BY41 whole entry): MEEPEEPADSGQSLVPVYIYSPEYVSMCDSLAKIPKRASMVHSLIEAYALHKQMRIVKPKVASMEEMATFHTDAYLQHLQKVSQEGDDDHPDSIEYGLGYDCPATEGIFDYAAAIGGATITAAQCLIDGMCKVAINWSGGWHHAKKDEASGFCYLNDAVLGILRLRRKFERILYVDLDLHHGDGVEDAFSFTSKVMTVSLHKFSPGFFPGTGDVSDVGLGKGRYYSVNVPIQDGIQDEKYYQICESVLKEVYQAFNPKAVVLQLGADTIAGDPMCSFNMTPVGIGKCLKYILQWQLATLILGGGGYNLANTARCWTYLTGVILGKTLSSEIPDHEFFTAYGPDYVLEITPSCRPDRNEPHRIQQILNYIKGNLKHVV

[4] = target: T3, Protein deacetylase HDAC6 (Homo sapiens, UniProt Q9UBN7); assay: Inhibition of HDAC6 (unknown origin)
T3 sequence (Q9UBN7 whole entry): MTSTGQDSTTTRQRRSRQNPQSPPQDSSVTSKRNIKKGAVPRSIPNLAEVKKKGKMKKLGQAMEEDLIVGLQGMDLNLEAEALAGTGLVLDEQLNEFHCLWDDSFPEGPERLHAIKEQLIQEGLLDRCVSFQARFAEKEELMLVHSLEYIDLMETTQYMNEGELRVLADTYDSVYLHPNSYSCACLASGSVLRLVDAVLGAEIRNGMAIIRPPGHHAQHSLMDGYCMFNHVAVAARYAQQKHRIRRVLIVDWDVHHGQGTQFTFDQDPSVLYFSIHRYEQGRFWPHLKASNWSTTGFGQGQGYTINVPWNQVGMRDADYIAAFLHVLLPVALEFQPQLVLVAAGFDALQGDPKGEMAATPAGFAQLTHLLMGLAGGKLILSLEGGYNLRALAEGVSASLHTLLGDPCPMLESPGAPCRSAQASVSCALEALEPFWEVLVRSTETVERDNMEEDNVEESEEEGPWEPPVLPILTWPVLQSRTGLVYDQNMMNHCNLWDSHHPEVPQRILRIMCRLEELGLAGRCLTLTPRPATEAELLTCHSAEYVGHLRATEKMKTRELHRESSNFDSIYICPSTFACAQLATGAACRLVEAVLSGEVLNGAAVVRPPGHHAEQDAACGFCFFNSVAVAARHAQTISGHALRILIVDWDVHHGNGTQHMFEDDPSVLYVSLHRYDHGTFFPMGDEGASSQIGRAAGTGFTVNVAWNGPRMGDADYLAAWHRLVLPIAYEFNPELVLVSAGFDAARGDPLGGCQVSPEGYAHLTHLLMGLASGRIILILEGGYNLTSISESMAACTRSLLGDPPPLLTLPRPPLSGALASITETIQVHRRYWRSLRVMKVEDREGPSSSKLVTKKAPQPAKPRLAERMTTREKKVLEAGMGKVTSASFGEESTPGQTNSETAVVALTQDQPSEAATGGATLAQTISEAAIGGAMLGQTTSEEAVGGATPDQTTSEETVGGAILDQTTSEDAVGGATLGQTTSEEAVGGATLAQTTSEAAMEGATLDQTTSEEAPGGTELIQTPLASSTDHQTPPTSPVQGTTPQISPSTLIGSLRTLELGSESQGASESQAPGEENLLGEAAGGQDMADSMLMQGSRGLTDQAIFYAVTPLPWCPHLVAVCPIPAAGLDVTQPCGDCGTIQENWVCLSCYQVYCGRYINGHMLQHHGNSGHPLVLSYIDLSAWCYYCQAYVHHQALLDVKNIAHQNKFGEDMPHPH

Histone deacetylase 1 [5] = target: T1, Histone deacetylase 1; assay: Inhibition of HDAC1 (unknown origin)
Histone deacetylase 8 [6] = target: T2, Histone deacetylase 8; assay: Inhibition of HDAC8 (unknown origin)
[7] = target: T3, Protein deacetylase HDAC6; assay: Inhibition of recombinant full-length human N-terminal GST-tagged HDAC6 expressed in baculovirus infected Sf9 insect cells using fluorescent-labelled Arg-His-Lys-Lys(Ac) as substrate measured after 2 hrs by fluorescence assay
Histone deacetylase 1 [8] = target: T1, Histone deacetylase 1; assay: Inhibition of recombinant human HDAC1 expressed in HEK293T cells using Ac-KGLGK(Ac)-MCA as substrate measured after 30 mins by fluorescence assay
Histone deacetylase 4 = Histone deacetylase 4 (Homo sapiens, UniProt P56524); assay: Inhibition of recombinant human HDAC4 expressed in HEK293T cells using Ac-KGLGK(Ac)-MCA as substrate measured after 30 mins by fluorescence assay
Chain of Histone deacetylase 4 (P56524 whole entry): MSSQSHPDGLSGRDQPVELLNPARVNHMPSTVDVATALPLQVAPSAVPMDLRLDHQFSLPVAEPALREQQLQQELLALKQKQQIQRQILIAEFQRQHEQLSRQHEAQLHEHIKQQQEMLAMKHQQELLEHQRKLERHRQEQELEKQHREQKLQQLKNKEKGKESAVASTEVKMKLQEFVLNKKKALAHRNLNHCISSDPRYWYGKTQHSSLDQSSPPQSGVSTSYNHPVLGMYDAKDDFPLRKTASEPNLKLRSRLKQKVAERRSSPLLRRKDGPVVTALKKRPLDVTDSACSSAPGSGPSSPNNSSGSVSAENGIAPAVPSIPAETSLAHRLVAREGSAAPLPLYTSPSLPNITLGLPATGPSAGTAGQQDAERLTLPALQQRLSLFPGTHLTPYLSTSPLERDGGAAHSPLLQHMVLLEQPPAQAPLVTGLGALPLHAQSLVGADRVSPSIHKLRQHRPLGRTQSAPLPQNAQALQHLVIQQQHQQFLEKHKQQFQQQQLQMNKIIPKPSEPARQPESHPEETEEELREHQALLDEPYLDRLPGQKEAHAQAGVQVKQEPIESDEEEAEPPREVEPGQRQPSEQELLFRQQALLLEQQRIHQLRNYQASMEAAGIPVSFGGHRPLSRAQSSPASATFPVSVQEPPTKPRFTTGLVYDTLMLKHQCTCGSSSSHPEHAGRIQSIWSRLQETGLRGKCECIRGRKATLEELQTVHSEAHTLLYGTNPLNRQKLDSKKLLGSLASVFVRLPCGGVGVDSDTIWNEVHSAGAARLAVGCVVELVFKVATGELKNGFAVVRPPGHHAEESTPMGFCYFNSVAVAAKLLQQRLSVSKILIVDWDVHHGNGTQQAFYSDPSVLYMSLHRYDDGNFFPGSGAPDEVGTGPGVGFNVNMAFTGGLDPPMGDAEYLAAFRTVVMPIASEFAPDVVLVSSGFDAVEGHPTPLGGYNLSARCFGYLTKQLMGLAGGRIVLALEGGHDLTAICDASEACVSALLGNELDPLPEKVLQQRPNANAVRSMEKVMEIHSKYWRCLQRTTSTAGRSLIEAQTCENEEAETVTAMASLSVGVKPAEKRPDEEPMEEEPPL

[9] = target: T4, Protein deacetylase HDAC6 (Mus musculus, UniProt Q9Z2V5); assay: Inhibition of recombinant mouse HDAC6 expressed in HEK293T cells using Ac-KGLGK(Ac)-MCA as substrate measured after 30 mins by fluorescence assay
T4 sequence (Q9Z2V5 whole entry): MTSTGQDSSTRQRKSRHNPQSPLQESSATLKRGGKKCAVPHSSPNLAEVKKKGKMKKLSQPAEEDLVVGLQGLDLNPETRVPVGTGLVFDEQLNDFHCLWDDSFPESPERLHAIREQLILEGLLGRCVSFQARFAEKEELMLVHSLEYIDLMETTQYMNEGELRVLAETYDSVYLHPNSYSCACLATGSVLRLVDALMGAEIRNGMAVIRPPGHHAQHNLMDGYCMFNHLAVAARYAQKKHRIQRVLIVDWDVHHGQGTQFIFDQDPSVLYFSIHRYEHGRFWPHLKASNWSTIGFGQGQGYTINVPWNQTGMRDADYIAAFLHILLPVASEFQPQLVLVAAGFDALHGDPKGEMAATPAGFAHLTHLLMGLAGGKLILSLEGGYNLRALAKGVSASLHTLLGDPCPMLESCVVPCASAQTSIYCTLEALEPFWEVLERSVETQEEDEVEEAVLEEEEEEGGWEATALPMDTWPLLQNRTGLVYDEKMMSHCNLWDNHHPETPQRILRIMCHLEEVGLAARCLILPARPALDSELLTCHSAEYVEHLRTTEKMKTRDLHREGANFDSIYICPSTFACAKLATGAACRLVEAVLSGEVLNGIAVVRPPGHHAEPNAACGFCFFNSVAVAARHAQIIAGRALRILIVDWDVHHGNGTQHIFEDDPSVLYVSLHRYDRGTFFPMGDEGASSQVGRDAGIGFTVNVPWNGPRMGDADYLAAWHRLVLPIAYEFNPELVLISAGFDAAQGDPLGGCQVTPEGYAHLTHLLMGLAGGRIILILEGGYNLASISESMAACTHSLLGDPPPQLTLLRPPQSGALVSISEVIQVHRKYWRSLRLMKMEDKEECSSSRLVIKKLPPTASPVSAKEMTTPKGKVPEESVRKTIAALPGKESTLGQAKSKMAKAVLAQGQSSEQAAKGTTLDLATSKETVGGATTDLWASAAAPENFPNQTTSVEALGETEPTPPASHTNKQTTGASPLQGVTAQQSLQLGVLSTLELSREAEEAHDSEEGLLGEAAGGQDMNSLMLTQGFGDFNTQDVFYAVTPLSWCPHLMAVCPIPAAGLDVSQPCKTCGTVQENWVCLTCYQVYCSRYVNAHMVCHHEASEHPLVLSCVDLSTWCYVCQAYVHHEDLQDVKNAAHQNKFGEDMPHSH

MCF7 = assay: cells; settings: Homo sapiens, MCF7, 48 h
HeLa = assay: cells; settings: Homo sapiens, 48 h
K562 = assay: cells; settings: Homo sapiens, K562, 48 h
Histone deacetylase [10] = format: cell-based, Homo sapiens; settings: hela
Histone deacetylase [11] = format: cell-based, Homo sapiens; settings: hela; remark: listed apart in the source
[12] = target: T3, Protein deacetylase HDAC6; assay: Inhibition of HDAC6 in human HeLa nuclear extract using Boc-Lys(acetyl)-AMC as substrate measured after 30 mins by fluorescence assay; format: cell-free
Histone deacetylase 8 [13] = target: T2, Histone deacetylase 8; assay: Inhibition of HDAC8 in human HeLa nuclear extract using Boc-Lys(acetyl)-AMC as substrate measured after 30 mins by fluorescence assay; format: cell-free
MDA-MB-231 = assay: cells; settings: Homo sapiens
Histone deacetylase 1 [14] = target: T1, Histone deacetylase 1; assay: Inhibition of HDAC1 (unknown origin) using (FAM)-labeled acetylated peptide as substrate measured after 17 hrs by fluorescence assay

pIC50 (Histone deacetylase 1 [1]): 6.08
pIC50 (Histone deacetylase 2): 4.72
pIC50 [2]: 5.24
pIC50 (Histone deacetylase 8 [3]): 4.63
SMILES: O=C(CCCCCn1cc(-c2ccc(C(=O)c3c(-c4ccc(O)cc4)sc4cc(O)ccc34)cc2)nn1)NO

pIC50 (Histone deacetylase 1 [1]): 6.77
pIC50 (Histone deacetylase 2): 6.18
pIC50 [2]: 6.89
pIC50 (Histone deacetylase 8 [3]): 6.40
SMILES: O=C(CCCCCCCNC(=O)c1c(-c2ccc(O)cc2)sc2cc(O)ccc12)NO

SMILES: C[C@]12CC[C@@H]3c4ccc(O)cc4CC[C@H]3[C@@H]1CC[C@@]2(O)c1cn(CCCCCCC(=O)NO)nn1
pIC50 [4]: 7.49
pIC50 (Histone deacetylase 1 [5]): 7.12
pIC50 (Histone deacetylase 8 [6]): 5.40

pIC50 [7]: 5.20
SMILES: CCN(CC)c1ccc(C(=O)NO)cc1

pIC50 (Histone deacetylase 1 [8]): 7.82
pIC50 (Histone deacetylase 4): 7.85
pIC50 [9]: 6.80
pIC50 (MCF7): 7.59
pIC50 (HeLa): 7.32
pIC50 (K562): 6.98
SMILES: CC1CCCC2(C1)NC(=O)[C@H](CCCCCC(=O)NO)NC(=O)[C@H]1CCCN1C(=O)[C@H](Cc1ccccc1)NC2=O (stereo not given in full)

IC50 (Histone deacetylase [10]): 504 nM
IC50 (Histone deacetylase [11]): 36 nM
SMILES: CCn1cnc(-c2ccc(OC)cc2)c1-c1ccc(/C=C/C(=O)NO)cc1

pIC50 [12]: 6.80
pIC50 (Histone deacetylase 8 [13]): 6.59
SMILES: CNCCOc1no[n+]([O-])c1S(=O)(=O)c1ccccc1

pIC50 [7]: 8.90
SMILES: Cc1c(CN(C)C)c2ccccc2n1-c1ccc(C(=O)NO)cc1

pIC50 (MDA-MB-231): 5.67
SMILES: O=C(CCCCCCC(=O)Nc1ccccc1)NO [VORINOSTAT]

pIC50 (Histone deacetylase 1 [14]): < 4.52
SMILES: Nc1ccccc1NC(=O)CCCCCCC(=O)Nc1cccc(-c2cn(-c3ccccc3)nn2)c1

pIC50 [4]: 8.10
pIC50 (Histone deacetylase 1 [5]): 7.82
pIC50 (Histone deacetylase 8 [6]): 4.96
SMILES: C[C@]12CC[C@@H]3c4ccc(O)cc4CC[C@H]3[C@@H]1CC[C@@]2(O)c1cn(CCCCC(=O)NO)nn1

pIC50 [12]: 6.55
pIC50 (Histone deacetylase 8 [13]): 6.38
SMILES: CC(CNC(=O)c1ccc(/C=C/C(=O)NO)cc1)Oc1no[n+]([O-])c1S(=O)(=O)c1ccccc1 (stereo not given)

pIC50 (Histone deacetylase 1 [1]): 6.22
pIC50 (Histone deacetylase 2): 5.61
pIC50 [2]: 6.67
pIC50 (Histone deacetylase 8 [3]): 6.14
SMILES: O=C(CCCCCCNC(=O)c1c(-c2ccc(O)cc2)sc2cc(O)ccc12)NO

pIC50 (Histone deacetylase 1 [1]): 5.99
pIC50 (Histone deacetylase 2): 5.74
pIC50 [2]: 6.13
pIC50 (Histone deacetylase 8 [3]): 4.52
SMILES: O=C(CCCCCCn1cc(-c2ccc(C(=O)c3c(-c4ccc(O)cc4)sc4cc(O)ccc34)cc2)nn1)NO

pIC50 [7]: 6.27
SMILES: O=C(NO)c1ccc(N2CCCC2)cc1

pIC50 (Histone deacetylase 1 [8]): 8.00
pIC50 (Histone deacetylase 4): 8.22
pIC50 [9]: 6.89
pIC50 (MCF7): 7.51
pIC50 (HeLa): 6.51
pIC50 (K562): 6.06
SMILES: CC1CCCCC12NC(=O)[C@H](CCCCCC(=O)NO)NC(=O)[C@H]1CCCN1C(=O)[C@H](Cc1ccccc1)NC2=O (stereo not given in full)

pIC50 [12]: 6.64
pIC50 (Histone deacetylase 8 [13]): 6.34
SMILES: O=C(/C=C/c1ccc(C(=O)NCCCOc2no[n+]([O-])c2S(=O)(=O)c2ccccc2)cc1)NO

pIC50 [4]: 7.89
pIC50 (Histone deacetylase 1 [5]): 7.55
pIC50 (Histone deacetylase 8 [6]): 6.35
SMILES: C[C@]12CC[C@@H]3c4ccc(O)cc4CC[C@H]3[C@@H]1CC[C@@]2(O)c1cn(CCCCCCCC(=O)NO)nn1
